# Read-outs that look alike come from different tables or passages of the source.
# Tests used:
# [1] = test system: normal human skin fibroblasts
# Experimental: Dermal fibroblasts were obtained as outgrowths from explanted dermal tissue, after incubation at 37° C. 5% CO2 97% humidity) in DMEM containing 10% FBS. The cells were harvested with 0.05% trypsin, 0.02% EDTA, and passaged in their respective media or used for construction of dermal and skin equivalents. For experimental treatments the cells were plated into 25 cm tissue culture flasks (T-25), 6 well tissue culture (TC) plates (9.6 cm^2/well), or 4 well TC plates (2 cm^2/well).
# (§2) The cells, DEs, or tissue equivalent products, contained in TC plates, were transferred into the treatment chamber, the lids were removed, and the TC plates covered with sterile gauze. […] The treatment pressure was maintained for 90 minutes. At the conclusion, decompression was carried out slowly over a five-minute period, and the treated cultures returned to the CO2 incubator. The treatments were repeated for 2, 5, or 10 consecutive days, and a normal medium change schedule was maintained.
# (§3) The cells and equivalents were incubated in 1 ml of neutral red solution (1 mg/ml in appropriate media) for 4 hours at 37° C. The effects on the cells (fibroblasts/keratinocytes) were evaluated microscopically and photographically recorded. The entry of neutral red into the cells signified that they were viable.
# [2] = test system: HUSE Product; conditions: for OUTCOME (neutral red viability): HUSE Product, 90 min/day for 10 days
# Experimental: Dermal equivalents, cast in 12 well tissue culture plates, were coated with collagen VII (Collaborative Research; 12 mg collagen/cm^2). Early passage keratinocytes (1.8×10^5cells/cm^2), suspended in KGM (2 mls) were then plated onto DE. The medium was changed after 24 hours, and thereafter at 48 hour intervals. Once a confluent monolayer was formed, the DE were transferred to a wire mesh grids, elevated to the air-liquid interface, and the media was changed to modified KGM containing 1.8 mM CaCl2; once lifted (“lift date” was “Day 0”) the system was considered to be a “developing HUSE product”. The “epidermis” remained at the air-liquid interface and differentiated for the duration of the experiment, the media being changed every 3 days. The HUSE product was considered mature after 14 days of differentiation.
# as §2, §3
# [3] = test system: Fibroblasts in Dermal Eq. on Grids; conditions: 90 min/day for 10 days
# Experimental: (§4) Dermal equivalents were constructed at 4° C. by mixing 8 parts collagen (Type I acid solubilized, ICN Cellagen®; 3 mg/ml), 1 part of 10×Ham's F-12 medium, 1 part buffer (200 mM HEPES, 25 mM Na2CO3 and 50 mMN NaOH) and inoculating with dermal fibroblasts (1×10^5 cells/ml at 4° C.). For experimental treatments DE were cast in 4 or 12 well tissue culture plates and were maintained at 37° C. in Ham's F-12 Medium containing 5% FBS. Fibroblasts regained their normal morphology within 48 hours, after which DE were maintained in modified Ham's F-12 Medium, changing the media every 48 hours.
# as §2, §3
# [4] = test system: normal human dermal fibroblasts
# Experimental: Collagen production by near confluent monolayer of dermal fibroblasts was determined by measuring the incorporation of tritiated proline [3H-proline] into bacterial collagenase-sensitive protein [Postlethwaite et al., Proc. Nat. Acad. Sci. (USA) 75:871-875 (1978)] using an extensively modified method of Peterkofsky and Diegelmann, Developmental Biology 28:443-453 (1972). The wells of a six well TC plate (Falcon 3008) were seeded with 5×10^5 fibroblasts and were cultured in DMEM containing 5% FBS for 72 hr at 37° C. (humidified 5% CO2 incubator). The medium was then replaced with serum free DMEM lacking in nonessential amino acids (500 ml), and containing 5 μC L-proline[2,3-3H] (20 Ci/mM, NEN, Boston, Mass.), and the hyperbaric treatments initiated. After 48 and 120 hours, two aliquots (200 ml) of culture supernatant were removed from each well. One aliquot was used to quantitate total protein production as follows: supernatant (200 ml) was added to 0.2 M Tris/0.3 M CaCl2 buffer (pH 7.5, 70 ml), FBS (25 ml),N-ethylmaleimide (NEM, 30 ml), and a 0.75% solution of tannic acid (TA) in 50% trichloroacetic acid 9TCA) (75 ml). […] The filters, placed in scintillation vials containing 5 ml Aquasol (New England Nuclear), were chilled for 4 hr, and counted in a liquid scintillation counter.
# The second aliquot of was used to quantitate the noncollagen protein as follows: supernatant (200 ml) was added to 0.2 M Tris/0.3 M CaCl2 buffer (pH 7.5, 50 ml), NEM (30 ml) and bacterial collagenase (20 ml) (Worthington Biochemical Corp., Freehold, N.J.), purified just before use by gel filtration on Sephadex G-200 to remove proteinases. […] The precipitate was collected on glass fiber filters, and the radioactivity was measured by scintillation counting.
# De novo synthesized collagen by each fibroblast culture was determined by substracting the noncollagen protein from the total proteins synthesized. Samples were assaved in quadruplicate or triplicate and the data are expressed as mean epm (+SEM) and/or percent of collagen produced relative to control cultures. […]
# [5] = 90 minutes, DMEM, KBM
# Experimental: A method similar to that described by Rafi et al., Am. J. Med. Genetics 61:299-303 […] was used to measure the partial pressure of oxygen (pO2) dissolved in the culture medium bathing the cells. To each well of a multiwell tissue culture (TC) plate was added the appropriate culture medium to a depth of 2 mm. The TC plates were then placed in the treatment chamber, the chamber was flushed out with oxygen for five minutes and then pressurized over an additional five minute period. The pressure was maintained for 90 minutes after which time period the treatment chamber was decompressed over a period of five minutes. The TC plates were then removed from the chamber and the pO2 measurement taken within two minutes using a polarographic oxygen electrode (Diamond General Development Corporation, Ann Arbor, Mich.). Dissolution of oxygen at four different pressures was measured in three different media.
# [6] = test system: Fibroblasts in Dermal Eq. Submerged; conditions: 90 min/day for 10 days
# Experimental: as §4, §2, §3
# [7] = test system: normal human keratinocytes; conditions: for OUTCOME (neutral red viability): Keratinocytes, Continuous 12 hrs or 90 min/day for 10 days
# Experimental: Human skin pieces (5 cm squares) were incubated at 4° C. in a solution of 20U/ml dispase (Collaborative Research; 5 mg collagen/cm2) in KGM (Keratinocyte Growth Medium, Clonetics Corp.), for 48 hours. The epidermis was separated from the dermis and dispersed in a solution containing 0.025% trypsin and 0.02% EDTA, by incubation at 37° C. and vigorous pipetting, to produce a single cell suspension. The resulting keratinocytes were then plated into tissue culture flasks coated with collagen VII, and cultured in KGM, a serum free defined medium at 37° C. (5% CO2, 97% humidity). […] The cells were harvested with 0.05% trypsin, 0.02% EDTA, and passaged in their respective media or used for construction of dermal and skin equivalents. For experimental treatments the cells were plated into 25 cm tissue culture flasks (T-25), 6 well tissue culture (TC) plates (9.6 cm^2/well), or 4 well TC plates (2 cm^2/well).
# as §2, §3
# [8] = test system: normal human dermal fibroblasts monolayers; conditions: for cell proliferation (cell numbers): 90 min./day for ten days
# Experimental: (§1) The cells, DEs, or tissue equivalent products, contained in TC plates, were transferred into the treatment chamber, the lids were removed, and the TC plates covered with sterile gauze. The treatment chamber was sealed, the oxygen (100%) was blown through slowly to expel all the air (2 min.), and the chamber brought up to the appropriate pressure over a period of five minutes. The treatment pressure was maintained for 90 minutes. At the conclusion, decompression was carried out slowly over a five-minute period, and the treated cultures returned to the CO2 incubator. The treatments were repeated for 2, 5, or 10 consecutive days, and a normal medium change schedule was maintained.
# [9] = test system: human skin equivalent product; conditions: 90 minutes/day for 10 days
# Experimental: as §1
# [10] = test system: normal human keratinocyte monolayers; conditions: periodic HBO treatment
# Experimental: as §1
compound,measurement,setting,value
"O=O [100% O2, oxygen]",OUTCOME (neutral red viability),"[1]; 3 hrs/day for 5 days, 320 mm Hg",Non-Toxic
same,OUTCOME (neutral red viability),"[1]; 3 hrs/day for 5 days, 480 mm Hg",Non-Toxic
same,OUTCOME (neutral red viability),"[1]; 3 hrs/day for 5 days, 760 mm Hg",Non-Toxic
same,OUTCOME (neutral red viability),"[1]; Continuous 12 hrs, 760 mm Hg",Non-Toxic
same,OUTCOME (neutral red viability),"[1]; Continuous 12 hrs, 1520 mm Hg",Some Toxicity
same,OUTCOME (neutral red viability),"[1]; Continuous 12 hrs, 1520 mm Hg, listed as 100% oxygen",some toxicity
same,OUTCOME (neutral red viability),"[1]; Continuous 12 hrs, 2280 mm Hg",Some Toxicity
same,OUTCOME (neutral red viability),"[1]; Continuous 12 hrs, 2280 mm Hg, listed as 100% oxygen",some toxicity
same,OUTCOME (neutral red viability),[2]; 760 mm Hg,Non-Toxic
same,OUTCOME (neutral red viability),[2]; 1520 mm Hg,Non-Toxic
same,OUTCOME (neutral red viability),[2]; 2280 mm Hg,Non-Toxic
same,adverse effect on developing HUSE products,[2]; up to 3 atmospheres,not adversely affected
same,OUTCOME (neutral red viability),[3]; 760 mm Hg,Non-Toxic
same,OUTCOME (neutral red viability),[3]; 1520 mm Hg,Some Toxicity
same,OUTCOME (neutral red viability),[3]; 2280 mm Hg,Some Toxicity
same,collagen synthesis,"[4]; 1 atmosphere, after two days of treatment",elevated
same,levels of collagen synthesis,"[4]; five days vs two days of treatment, all pressure levels",higher after five days of treatment than after two days
same,collagen synthesis,[4]; with increased HBO,inhibition of collagen synthesis
same,MEASURED pO2 (Mean of three readings),"[5]; applied O2 pressure 1 atm. - 760 mm Hg, KGM",316 mm Hg
same,MEASURED pO2 (Mean of three readings),"[5]; applied O2 pressure 2 atm. - 1520 mm Hg, KGM",800 mm Hg
same,MEASURED pO2 (Mean of three readings),"[5]; applied O2 pressure 2.5 atm. - 1900 mm Hg, KGH",941 mm Hg
same,MEASURED pO2 (Mean of three readings),"[5]; applied O2 pressure 3 atm. - 2280 mm Hg, KGM",1215 mm Hg
same,OUTCOME (neutral red viability),[6]; 760 mm Hg,Non-Toxic
same,OUTCOME (neutral red viability),[6]; 1520 mm Hg,Non-Toxic
same,OUTCOME (neutral red viability),[6]; 2280 mm Hg,Non-Toxic
same,OUTCOME (neutral red viability),[7]; 760 mm Hg,Non-Toxic
same,OUTCOME (neutral red viability),[7]; 1520 mm Hg,Non-Toxic
same,OUTCOME (neutral red viability),[7]; 2280 mm Hg,Non-Toxic
same,toxicity,"[7]; keratinocyte monolayer cultures, any pressure",No toxicity
same,cell proliferation (cell numbers),[8]; 1 atm. Donor,Stimulation of cell proliferation
same,cell proliferation (cell numbers),[8]; 2.5 atm. Donor,Stimulation of cell proliferation
same,cell proliferation (cell numbers),"[8]; 3 atm, donor",consistently non-stimulating and perhaps marginally anti-mitotic
same,effect on fibroblast mitosis,[8]; oxygen pressures above about three atmospheres,antimitotic
same,cornification of the epidermal layer,[9],particularly stimulated
same,epidermal thickness,"[9]; 1 and 2 atm of 100% oxygen, vs untreated control",progressive increase in epidermal thickness
same,cell number,[10]; 1 atm.,consistently indistinguishable from the controls
same,cell number,[10]; 2 atm.,not as mitotic as the latter
same,cell number,[10]; 2.5 atm.,not as mitotic as the latter
same,cell number,[10]; 3 atm.,"a constant number of cells, well below the numbers obtained in other treatments"
